The text below walks through data of US20250230138A1, “COMPOUNDS HAVING A T-STRUCTURE FORMED BY AT LEAST FOUR CYCLES FOR USE IN THE TREATMENT OF CANCER AND OTHER INDICATIONS” (TheRas, Inc., priority 2022, published 2025).

Experiment [1] addresses Cys242 in human PIK3CA (157-299) (Homo sapiens (Human), UniProt P42336). Briefly: Covalent modification assay using MALDI-TOF MS. It is filed as biochemical. As to conditions: 4 h reaction time point. The essentials:
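PIK3CA (157-299) at 3.33 μM or 1 μM in 20 mM HEPES, 150 mM NaCl, 2 mM MgCl2, pH 7.3 was incubated with compound (from 10 mM DMSO stocks) in the dark at room temperature for 15 min, 30 min, 2 h or 4 h. Linear-mode MALDI-TOF peak heights gave percent modification.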

For a further experiment, the system named is pAKT in BT474 cells. Briefly: Cell-based pAKT HTRF assay in BT474 cells. As to conditions: BT474 cells, 4 hr incubation, read-out: pAKT inhibition IC50 in BT474 cells. The essentials:
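BT474 cells in DMEM/10% FBS were treated the day after seeding with a 9-point, 3-fold compound series from 3 μM (0.25% DMSO) for 4 hr. Lysates were mixed with d2 and Eu cryptate anti-pAKT antibodies and incubated 4-24 h at room temperature. HTRF was read with excitation at 320 nm and emission at 615 nm.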
In general terms: In TR-FRET formats the signal depends on donor and acceptor labels being close together.

[2] abbreviates: 3.33 μM protein target, 1:7.5 protein to compound ratio (compounds 1-852).
[3] abbreviates: Homo sapiens, BT-474, Compounds 10-999.
Setting [4] is: 1 μM protein target, 1:5 protein to compound ratio (compounds 853-1279).

Read-outs that look alike come from different tables or passages of the source. Some results are limits rather than exact numbers.

Sequence of Cys242 in human PIK3CA (157-299) (P42336 157-299): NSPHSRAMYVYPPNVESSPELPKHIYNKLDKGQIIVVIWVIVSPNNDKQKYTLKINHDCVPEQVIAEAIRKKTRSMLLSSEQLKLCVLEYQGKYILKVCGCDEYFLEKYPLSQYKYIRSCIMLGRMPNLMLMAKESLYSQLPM

The term IC50 denotes the concentration needed to halve the response being measured. As to `C=CC(=O)N1CCc2ccc(-c3nc(-c4ccc5c(c4)CNC5=O)c4ccsc4c3-c3c(F)cc(F)cc3OC(C)C)nc2C1` [Compound 411, 5-[7-(2,4-difluoro-6-isopropoxy-phenyl)-6-(7-prop-2-enoyl-6,8-dihydro-5H-1,7-naphthyridin-2-yl)thieno[3,2-c]pyridin-4-yl]isoindolin-1-one], the “% of modification” value in experiment [1] (setting [2]) is listed as “A (percent of modification of PIK3CA protein ≥75%)”. Besides, in the experiment with pAKT in BT474 cells (setting [3]), the IC50 was under 100 nM.
For the compound `C=CC(=O)N1CC(n2cc(-c3nc(N4CC5(CCNCC5)C4)c4ccsc4c3-c3ccc(F)cc3OCCOC)cn2)C1` [Compound 138], the “% of modification” value in experiment [1] (setting [2]) is given as “A (percent of modification of PIK3CA protein ≥75%)”. The IC50 in the experiment with pAKT in BT474 cells (Compounds 10-999) is 100 to 1000 nM.
The like results for `C=CC(=O)N1CCn2nc(-c3nc(-c4ccc5nn(C)cc5c4)c4ccsc4c3-c3c(F)cc(F)cc3OC[C@@H](C)O)cc2[C@H]1C` [Compound 760] were, in that order, “A (percent of modification of PIK3CA protein ≥75%)” and under 100 nM.
In the same order, the values of `C=CC(=O)N1CCn2ncc(-c3nc(-c4ccc5c(c4)CCNC5)c4ccsc4c3-c3ccc(F)cc3OCCOC)c2C1` [Compound 77] are “D (percent of modification <25%)” and over 3000 nM.
The like results for `C=CC(=O)N1CC[C@@H](n2cc(-c3nc(-c4ccn(C)c(=O)c4)c4ccsc4c3-c3c(F)cc(F)cc3OC(C)C)cn2)C1` [Compound 386] were, in that order, “A (percent of modification of PIK3CA protein ≥75%)” and under 100 nM.
For the compound `C=CC(=O)N1CCc2ncc(-c3nc(-c4cncc(F)c4)c4ccsc4c3-c3c(F)cc(F)cc3OC(C)C)cc2C1` [Compound 406], the “% of modification” value in experiment [1] (setting [2]) is given as “A (percent of modification of PIK3CA protein ≥75%)”. Also, the IC50 in the experiment on pAKT in BT474 cells (Compounds 10-999) is under 100 nM.
In the case of `C=CC(=O)N1CCn2cc(-c3nc(-c4ccc(=O)n(C)c4)c4ccsc4c3-c3ccc(F)cc3OCC3CCN(C)C(=O)C3)nc2C1` (stereo not drawn) [Compound 264], the “% of modification” value in experiment [1] (setting [2]) is “A (percent of modification of PIK3CA protein ≥75%)”. In the experiment with pAKT in BT474 cells (Compounds 10-999), the IC50 was over 3000 nM.
`C=CC(=O)N1CCn2nc(-c3nc(-c4ccc5c(c4)CN(C)CC54CC4)c4ccsc4c3-c3c(F)cc(F)cc3OCCOC)cc2C1C` (stereo not drawn) [Compound 1113]: the “% of modification” value in experiment [1] (setting [4]) is “A (percent of modification of PIK3CA protein ≥75%)”. The concentration for half-maximal inhibition (IC50) in the experiment on pAKT in BT474 cells (Compounds 1000-1279) is under 100 nM.
Regarding `C=CC(=O)N1CCn2nc(-c3nc(-c4ccc(=O)n(C)c4)ncc3-c3ccc(F)cc3OC(C)C)cc2C1` [Compound 337, 5-[5-(4-fluoro-2-isopropoxy-phenyl)-4-(5-prop-2-enoyl-6,7-dihydro-4H-pyrazolo [1,5-a]pyrazin-2-yl)pyrimidin-2-yl]-1-methyl-pyridin-2-one], the “% of modification” value in experiment [1] (setting [2]) is listed as “B (50%<percent of modification <75%)”. For the same compound, the half-maximal inhibitory concentration (IC50) with pAKT in BT474 cells (setting [3]) is over 3000 nM.
On to `C=CC(=O)N1Cc2cc(-c3nc(-c4ccc5c(c4)CCN(C)CC5)c4ccsc4c3-c3c(F)cc(F)cc3OCCOC)nn2C[C@H]1C` [Compound 841], for which, in experiment [1] (setting [2]), the “% of modification” value is reported as “A (percent of modification of PIK3CA protein ≥75%)”. The IC50 in the experiment with pAKT in BT474 cells (Compounds 10-999) is under 100 nM.
With `C=CC(=O)N1CCn2nc(-c3nc(N4CC5(CNC(=O)C5)C4)c4ccsc4c3-c3c(F)cc(F)cc3OCCOC)cc2C1C` (stereo not drawn) [Compound 1013], the “% of modification” value in experiment [1] (setting [4]) is recorded as “A (percent of modification of PIK3CA protein ≥75%)”. The IC50 in the experiment with pAKT in BT474 cells (Compounds 1000-1279) lay within 100 to 1000 nM.
In the same order, the values of `C=CC(=O)N1CCc2ccc(-c3nc(-c4cnc(N5CCN(C)CC5)nc4)c4ccsc4c3-c3c(F)cc(F)cc3OCCOC)cc2C1` [Compound 1069] are “D (percent of modification <25%)” and over 1000 nM.
For the compound `C=CC(=O)N1CCn2nc(-c3nc(-c4cnnc(C)c4)c4ccsc4c3-c3c(F)cc(F)cc3OC[C@@H](C)O)cc2[C@H]1C` [Compound 751], in experiment [1] (setting [2]), the “% of modification” value is listed as “A (percent of modification of PIK3CA protein ≥75%)”. In addition, in the experiment on pAKT in BT474 cells (Compounds 10-999), the concentration for half-maximal inhibition (IC50) is under 100 nM.
In the same order, the values of `C=CC(=O)N1CCn2nc(-c3nc(-c4ccc5ncn(C)c5c4)c4ccsc4c3-c3c(F)cc(F)cc3OCCO)cc2C1C` (stereo not drawn) [Compound 773] are “A (percent of modification of PIK3CA protein ≥75%)” and under 100 nM.
In the case of `C=CC(=O)N1CCn2nc(-c3nc(-c4cccc(CN(C)C)c4)c4ccsc4c3-c3c(F)cc(F)cc3OCCOC)cc2C1C` (stereo not drawn) [Compound 1061], the “% of modification” value in experiment [1] (setting [4]) is “A (percent of modification of PIK3CA protein ≥75%)”. Further, in the experiment with pAKT in BT474 cells (Compounds 1000-1279), the IC50 was under 100 nM.
Regarding `C=CC(=O)N1CCc2ncc(-c3nc(-c4cccc(C#N)c4)c4ccsc4c3-c3c(F)cc(F)cc3OC(C)C)cc2C1` [Compound 381], the “% of modification” value in experiment [1] (setting [2]) is reported as “A (percent of modification of PIK3CA protein ≥75%)”. In addition, in the experiment with pAKT in BT474 cells (Compounds 10-999), the half-inhibitory concentration (IC50) is under 100 nM.
As for `C=CC(=O)N1Cc2cc(-c3nc(-c4ccc(N(C)C)nc4)c4ccsc4c3-c3c(F)cc(F)cc3OCCOC)nn2CC1C` (stereo not drawn) [Compound 855], in experiment [1] (setting [4]), the “% of modification” value was “A (percent of modification of PIK3CA protein ≥75%)”. Moreover, in the experiment with pAKT in BT474 cells (Compounds 10-999), the half-maximal inhibitory concentration (IC50) is under 100 nM.
Turning to `C=CC(=O)N1CCn2nc(-c3nc(-c4ccc(=O)n(CC(F)F)c4)c4ccsc4c3-c3ccc(F)cc3OCCOC)cc2C1` [Compound 266], the “% of modification” value in experiment [1] (setting [2]) was “A (percent of modification of PIK3CA protein ≥75%)”. Further, in the experiment with pAKT in BT474 cells (Compounds 10-999), the IC50 was under 100 nM.
The like results for `C=CC(=O)N1CCc2ncc(-c3nc(-c4cncc(Cl)c4)c4ccsc4c3-c3c(F)cc(F)cc3OCCOC)cc2C1` [Compound 377] were, in that order, “A (percent of modification of PIK3CA protein ≥75%)” and under 100 nM.
The like results for `C=CC(=O)N1CCc2ncc(-c3nc(-c4cnnc(C)c4)c4ccsc4c3-c3c(F)cc(F)cc3OCCOC)cc2C1` [Compound 383] were, in that order, “A (percent of modification of PIK3CA protein ≥75%)” and under 100 nM.
For `C=C(F)C(=O)N1CCn2nc(-c3nc(-c4ccc5c(c4)[C@@H](O)CC5)c4ccsc4c3-c3c(F)cc(F)cc3OC(C)C)cc2C1` [Compound 354], the “% of modification” value in experiment [1] (setting [2]) is on record as “B (50%<percent of modification <75%)”. Also, in the experiment on pAKT in BT474 cells (Compounds 10-999), the IC50 was under 100 nM.
In the same order, the values of `C=CC(=O)N1CCc2nc(-c3nc(-c4ccc5c(c4)CNC5)c4ccsc4c3-c3ccc(F)cc3OCCOC)sc2C1` [Compound 153] are “A (percent of modification of PIK3CA protein ≥75%)” and under 100 nM.
The like results for `C=C(F)C(=O)N1CCn2nc(-c3nc(-c4ccc5c(c4)CNC5=O)c4ccsc4c3-c3c(F)cc(F)cc3OCC(F)F)cc2C1` [Compound 353] were, in that order, “B (50%<percent of modification <75%)” and 100 to 1000 nM.
In the same order, the values of `C=CC(=O)N1Cc2cc(-c3nc(-c4cnn(C)c4)c4ccsc4c3-c3c(F)cc(F)cc3OC(C)C)nn2C[C@H]1C` [Compound 456, 1-((R)-2-((R)-7-(2,4-difluoro-6-isopropoxyphenyl)-4-(1-methyl-1H-pyrazol-4-yl)thieno[3,2-c]pyridin-6-yl)-6-methyl-6,7-dihydropyrazolo[1,5-a]pyrazin-5(4H)-yl)prop-2-en-1-one] are “D (percent of modification <25%)” and over 3000 nM.
Consider `C=CC(=O)N1Cc2cc(-c3nc(-c4cnn(CC(C)(C)O)c4)c4ccsc4c3-c3c(F)cc(F)cc3OCCOC)nn2C[C@H]1C` [Compound 514], for which the “% of modification” value in experiment [1] (setting [2]) is reported as “A (percent of modification of PIK3CA protein ≥75%)”. In the experiment on pAKT in BT474 cells (Compounds 10-999), the IC50 is under 100 nM.
In the same order, the values of `C=CC(=O)N1CCn2nc(-c3nc(-c4ccc5c(c4)CCN(C)C5)c4ccsc4c3-c3c(F)cc(F)cc3OCCO)cc2C1C` (stereo not drawn) [Compound 537] are “A (percent of modification of PIK3CA protein ≥75%)” and under 100 nM.
In the same order, the values of `C=CC(=O)N1Cc2cc(-c3nc(-c4ccc5cn(C)nc5c4)c4ccsc4c3-c3c(F)cc(F)cc3OC)nn2C[C@H]1C` [Compound 844] are “A (percent of modification of PIK3CA protein ≥75%)” and under 100 nM.
In the same order, the values of `C=CC(=O)N1Cc2cc(-c3nc(-c4cn(C)cn4)c4ccsc4c3-c3c(F)cc(F)cc3OC[C@@H](C)O)nn2C[C@H]1C` [Compound 745] are “A (percent of modification of PIK3CA protein ≥75%)” and under 100 nM.
As for `COC/C=C/C(=O)N1CCn2nc(-c3nc(-c4ccc5c(c4)CCNC5=O)c4ccsc4c3-c3ccc(F)cc3OC(C)C)cc2C1` [Compound 277], in experiment [1] (setting [2]), the “% of modification” value was “A (percent of modification of PIK3CA protein ≥75%)”. Also, in the experiment with pAKT in BT474 cells (Compounds 10-999), the IC50 fell in the range of 100 to 1000 nM.
Turning to `C=CC(=O)NCc1cc(-c2nc(-c3ccc4c(c3)CCNC4)c3ccsc3c2-c2ccc(F)cc2OCCOC)ccc1OC` [Compound 74], in experiment [1] (setting [2]), the “% of modification” value is “D (percent of modification <25%)”. Besides, the IC50 in the experiment on pAKT in BT474 cells (Compounds 10-999) was in the range of 1000 to 3000 nM.
In the same order, the values of `C=CC(=O)N1Cc2cc(-c3nc(-c4ccc5c(c4)CN(C)C5=O)c4ccsc4c3-c3c(F)cc(F)cc3OCCOC)nn2C[C@H]1C` [Compound 795] are “A (percent of modification of PIK3CA protein ≥75%)” and under 100 nM.
The like results for `C=CC(=O)N1CCc2ccc(-c3nc(-c4cnc5c(c4)CNC(=O)C5)c4ccsc4c3-c3c(F)cc(F)cc3OCCOC)cc2C1` [Compound 482] were, in that order, “A (percent of modification of PIK3CA protein ≥75%)” and under 100 nM.
In the same order, the values of `C=CC(=O)N1CCc2ncc(-c3nc(-c4cnc(C)s4)c4ccsc4c3-c3c(F)cc(F)cc3OC(C)C)cc2C1` [Compound 392] are “A (percent of modification of PIK3CA protein ≥75%)” and under 100 nM.
